Source: US10016373B2, “CB2 receptor ligands for the treatment of psychiatric disorders” (priority 2013, dated 2018)
Where two headings read alike, the source gives them in different places.

Tests used:
[1] = test system: mice; assay: Prepulse inhibition (PPI) of the startle reflex; type: in vivo
Method: Attention Test: Prepulse Inhibition (PPI) of the Startle Reflex
A weak audible stimulus (74-90 dB tone) “prepulse” was used to inhibit the acoustic startle response to a subsequent strong audible stimulus (120 dB tone) “pulse”. Reduced prepulse inhibition of the startle reflex (PPI) was taken as an index of the positive symptoms of deficits in attention.
PPI was assessed similarly to the method described by Varty et al. (2001). Mice were placed in a startle chamber and allowed to acclimatize for 5 minutes A loudspeaker produced startling “pulse” at 120 dB and thereafter 65 dB background white noise or one of […] 20 ms duration “prepulses” at 74, 78, 82, 86, and 90 dB followed after 20 ms by a 40 ms startling “pulse” at 120 dB. The response of each mouse was recorded and stored by a computer. Each test session lasted for 11 minutes and consisted of 5 presentations of each of the prepulse/pulse sound stimuli (total of 30 or 35) presented in random order and separated by 15 second intervals. The magnitude of prepulse inhibition was calculated as percentage PPI=[1-(acoustic startle for prepulse+pulse)/(acoustic startle for pulse alone)]×100.

[2] = target: T1, CB2 receptor (Homo sapiens, UniProt P34972); settings: cited from earlier work
T1 construct: expressed in transfected cells; host or cells: CHO cells
T1 sequence (P34972 whole entry): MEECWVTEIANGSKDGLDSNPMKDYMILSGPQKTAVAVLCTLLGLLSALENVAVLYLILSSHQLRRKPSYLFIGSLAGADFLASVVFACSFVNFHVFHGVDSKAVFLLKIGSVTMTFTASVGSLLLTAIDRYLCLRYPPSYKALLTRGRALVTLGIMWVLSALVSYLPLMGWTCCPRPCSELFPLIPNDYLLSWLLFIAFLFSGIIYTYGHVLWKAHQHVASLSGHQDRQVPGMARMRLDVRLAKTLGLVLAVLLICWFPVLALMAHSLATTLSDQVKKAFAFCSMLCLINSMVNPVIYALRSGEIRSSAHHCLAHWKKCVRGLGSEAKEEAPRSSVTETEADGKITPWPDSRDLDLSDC

[3] = test system: mice; assay: Vocal tics, ultrasonic voice recording; type: in vivo
Method: Mice were recorded at the age of 13 or 23-25 weeks with an ultrasonic voice recorder (Noldus). Mice were recorded at the age of 29 days with an ultrasonic voice recorder (AviSoft). Single mice were recorded in a cage for 10 min (according to sex and type of treatment). The number and duration of events at 20-40 kHz and at 50-70 kHz were analyzed. In some experiments, 24 h following M1 treatment, each mouse was recorded for 10 min before and after stress. Stress was induced by incubation for 10-15 min in a mouse restrainer.

[4] = target: T1, CB2 receptor; settings: cited from earlier work; remark: listed apart in the source
[5] = test system: mice; assay: Impulsivity, Elevated Plus Maze; type: in vivo; settings: CB2 agonist2 model mice at 13 weeks, M1 5 mg/kg i.p. 24 hours before the test
Method: The treatment consisted of a single intravenous administration of the vehicle or the M1 solution Impulsivity was tested 24 hours after treatment.
Impulsivity as measured by the paucity of time spent on the two anxiety-provoking, open arms (as opposed to the two enclosed arms) of an “Elevated Plus Maze” was used as a parameter of negative symptoms of schizophrenia (Josselyn and Vaccarino, 1998). The plus maze was elevated 50 cm above the table top. Behavior of each mouse was recorded for 5 minutes by a video camera and scored using the “EthoVision” software (Noldus), measuring the number of entries as well as the amount of time spent in each arm, open or closed. Reduced time spent in the closed arms indicated reduced anxiety. Increased time spent in the opened arms indicated increased risk behavior (hyperactive and impulsive).
The treatment consisted of a single i.p. administration of the vehicle or the M1 solution. The duration ratio open arm/close arm and the frequency ratio open arm/close arm in the Elevated Plus Maze were evaluated 24 hours after treatment with either vehicle or M1.

[6] = test system: presenilin 2 mutant mice; settings: cited from earlier work
[7] = Body weight; type: in vivo; settings: postnatal day 100; mice treated with 0.5 mg/kg CB2 agonist2; FIG. 16C
[8] = test system: mouse model of Alzheimer's disease; settings: orally administered, Lee et al. 2012; cited from earlier work
[9] = test system: osteoclastogenesis; settings: Schuehly et al. 2011; cited from earlier work
[10] = test system: mice; type: in vivo
Method: For the treated mice, one of the two CB2 receptor-selective agonist solutions: either CB2 agonist2 solution or H-308 solution, was administered by intravenous administration to mice pups to induce ADHD-like behavior and/or obsessive-compulsive-like behavior as a murine model for ADHD and OCD. […] In order to test the effect of non-agonist or mixed-type agonist/inverse agonist CB2 receptor ligands on hyperactivity, the effects of M1 were studied.
Open-Field Test (Crossing and Rearing, Defecation, Grooming)
Mice were assessed for hyperactive behavior on postnatal days 16-20, 26-39, at age 13 weeks and at age 23 weeks. Mice were placed in the center of a transparent glass cage 30×40×31 cm divided into squares of 7.5×7.5 cm. The number of squares crossed and the rearing activity were evaluated for 8 min.

[11] = CB2 receptor, Schuehly et al. 2011

SMILES: C=CCc1ccc(O)c(-c2ccc(OC)c(CC=C)c2)c1 [M1, 2-(4-Methoxy-3-prop-2-enylphenyl)-4-prop-2-enylphenol]
- response to pre-pulse tone ([1]; mice treated with 0.5 mg/kg CB2 agonist2, FIG. 15B): reversed
- response to the startle tone of 120 dB ([1]; postnatal day 100, 0.5 mg/kg CB2 agonist2 mice, at the beginning of the experiment, FIG. 16A): no effect
- response to 120 dB ([1]; postnatal day 100, 0.5 mg/kg CB2 agonist2 mice, re-evaluated at the end of the experiment, FIG. 16B): reversed
- % PPI (pre-pulse inhibition) ([1]; postnatal day 100, mice treated with 0.5 mg/kg CB2 agonist2, FIG. 15A): reversed
- activity via Ca2+ pathway [2, 11]: partial agonism
- intracellular Ca2+ concentration ([2]; known dual effects of M1): increasing
- number of vocal events ([3]; 20-40 KHz, day 29, female mice, CB2 agonist2 0.5 mg/kg at the age of 3-15 days, M1 5 mg/kg on day 29, FIG. 14A): reversed
- duration of vocals ([3]; 20-40 KHz, day 29, female mice, CB2 agonist2 0.5 mg/kg at the age of 3-15 days, M1 5 mg/kg on day 29, FIG. 14B): reversed
- number of vocal events ([3]; female mice 23-25 weeks, 20-40 KHz, stress, CB2 agonist2 5 mg/kg postnatal days 5-13, M1 given to model mice, FIG. 7A): reversed
- total duration of vocal events ([3]; female mice 23-25 weeks, 20-40 KHz, stress, CB2 agonist2 5 mg/kg postnatal days 5-13, M1 given to model mice, FIG. 7B): reversed
- mean duration of vocal events ([3]; female mice 23-25 weeks, 20-40 KHz, stress, CB2 agonist2 5 mg/kg postnatal days 5-13, M1 given to model mice, FIG. 7C): reversed
- number of vocal events ([3]; female mice 23-25 weeks, 50-70 KHz, stress, CB2 agonist2 5 mg/kg postnatal days 5-13, M1 given to model mice, FIG. 8A): reversed
- total duration of vocal events ([3]; female mice 23-25 weeks, 50-70 KHz, stress, CB2 agonist2 5 mg/kg postnatal days 5-13, M1 given to model mice, FIG. 8B): reversed
- mean duration of vocal events ([3]; female mice 23-25 weeks, 50-70 KHz, stress, CB2 agonist2 5 mg/kg postnatal days 5-13, M1 given to model mice, FIG. 8C): reversed
- total duration of vocal events ([3]; male mice 23-25 weeks, 20-40 KHz, before stress, CB2 agonist2 5 mg/kg postnatal days 5-13, M1 given to model mice, FIG. 9A): reversed
- mean duration of vocal events ([3]; male mice 23-25 weeks, 20-40 KHz, before stress, CB2 agonist2 5 mg/kg postnatal days 5-13, M1 given to model mice, FIG. 9B): reversed
- total duration of vocal events ([3]; male mice 23-25 weeks, 50-70 KHz, before stress, CB2 agonist2 5 mg/kg postnatal days 5-13, M1 given to model mice, FIG. 10A): reversed
- mean duration of vocal events ([3]; male mice 23-25 weeks, 50-70 KHz, before stress, CB2 agonist2 5 mg/kg postnatal days 5-13, M1 given to model mice, FIG. 10B): reversed
- activity via cAMP pathway [4, 11]: inverse agonism
- cAMP production ([4]; known dual effects of M1): increasing
- impulsive/hyperactive behavior [5]: reversed
- memory impairment [6]: attenuates
- body weight [7]: no effect
- amyloidogenesis and progression of AD [8]: prevent
- osteoclastogenesis [9]: potently inhibits
- grooming ([10]; CB2 agonist2 0.5 mg/kg at the age of 3-15 days, M1 5 mg/kg on day 29, measured on day 39, stressed female mice, FIG. 13A): reversed
- feces secretion ([10]; CB2 agonist2 0.5 mg/kg at the age of 3-15 days, M1 5 mg/kg on day 29, measured on day 39, stressed female mice, FIG. 13B): reversed
- rearing ([10]; CB2 agonist2 0.5 mg/kg at the age of 3-15 days, M1 on day 29, measured on day 36, unstressed female mice, FIG. 12A): reversed
- ambulation ([10]; CB2 agonist2 0.5 mg/kg at the age of 3-15 days, M1 on day 29, measured on day 39, stressed female mice, FIG. 12B): reversed
- ambulation ([10]; CB2 agonist2 0.5 mg/kg model, M1 injected on day 29, measured the same day, stressed females, FIG. 11B): reversed
- rearing ([10]; CB2 agonist2 0.5 mg/kg model, M1 injected on day 29, measured the same day, stressed females, FIG. 11D): reversed
- hyperactivity ([10]; age of 3 months, 0.1 mg/kg HU-308, M1 5 mg/kg in gavage 30 minutes before the experiment, FIGS. 17A-B): reversed
- oral availability ([10]; inferred from efficacy of M1 5 mg/kg given in gavage): orally available
- ambulation ([10]; model mice 5 mg/kg CB2 agonist2 postnatal days 1-5, M1 5 mg/kg single i.p. at 13 weeks, 30 minutes after treatment, FIG. 5A): reversed
- rearing ([10]; model mice 5 mg/kg CB2 agonist2 postnatal days 1-5, M1 5 mg/kg single i.p. at 13 weeks, 30 minutes after treatment, FIG. 5B): reversed
- secretion of feces ([10]; model mice 5 mg/kg CB2 agonist2 postnatal days 5-13, M1 5 mg/kg single i.p. at 23 weeks, FIG. 4C): reversed
- grooming duration ([10]; model mice 5 mg/kg CB2 agonist2 postnatal days 5-13, M1 5 mg/kg single i.p. at 23 weeks, tested 48 hours after treatment, FIG. 4A): reversed
- grooming frequency ([10]; model mice 5 mg/kg CB2 agonist2 postnatal days 5-13, M1 5 mg/kg single i.p. at 23 weeks, tested 48 hours after treatment, FIG. 4B): reversed
